In US10428087B2, “Pyrimidinones as PI3K inhibitors” (Incyte Corporation, priority 2009, dated 2019):
Counter-ions that a name gives are not always drawn. Blank lines part the entries; values can stand above or below the compound they belong to.

Tests used:
B cells = assay: B cell proliferation assay (Example B1); format: cell-based; conditions: purified human B cells, anti-human IgM, [3H]-thymidine
Procedure: To acquire B cells, human PBMC were isolated from the peripheral blood of normal, drug free donors by standard density gradient centrifugation on Ficoll-Hypague (GE Healthcare, Piscataway, N.J.) and incubated with anti-CD19 microbeads (Miltenyi Biotech, Auburn, Calif.). The B cells were then purified by positive immunosorting using an autoMacs (Miltenyi Biotech) according to the manufacturer's instruction.
The purified B cells (2×10^5/well/200 μL) were cultured in 96-well ultra-low binding plates (Corning, Corning, N.Y.) in RPMI1640, 10% FBS and goat F(ab′)2 anti-human IgM ([…]) (Invitrogen, Carlsbad, Calif.), in the presence of different amount of test compounds, […] [^3H]-thymidine (1 μCi/well) (PerkinElmer, Boston, Mass.) in PBS was then added to the B cell cultures for an additional 12 hrs before the incorporated radioactivity was separated by filtration with water through GF/B filters (Packard Bioscience, Meriden, Conn.) and measured by liquid scintillation counting with a TopCount (Packard Bioscience). […] See Table 2 for data related to compounds of the invention.

[1] = tested on: Pfeiffer cell line (diffuse large B cell lymphoma); assay: Pfeiffer cell proliferation assay (Example B2); format: cell-based; conditions: Pfeiffer cells, [3H]-thymidine
Procedure: Pfeiffer cell line (diffuse large B cell lymphoma) was purchased from ATCC (Manassas, Va.) and maintained in the culture medium recommended (RPMI and 10% FBS). To measure the anti-proliferation activity of the PI3Kδ submittals, the Pfeiffer cells were plated with the culture medium (2×10^3 cells/well/per 200 μl) into 96-well ultra-low binding plates (Corning, Corning, N.Y.), in the presence or absence of a concentration range of test compounds. After 3-4 days, [^3H]-thymidine (1 μCi/well) (PerkinElmer, Boston, Mass.) in PBS was then added to the cell culture for an additional 12 hrs before the incorporated radioactivity was separated by filtration with water through GF/B filters (Packard Bioscience, Meridenj, Conn.) and measured by liquid scintillation counting with a TopCount (Packard Bioscience). See Table 3 for data related to compounds of the invention.

Compound: Cc1csc2nc(C(C)Nc3nc(N)nc4[nH]cnc34)c(-c3cccc(F)c3)c(=O)n12 (centres unmarked) [Example 11, 7-{1-[(2-amino-9H-purin-6-yl)amino]ethyl}-6-(3-fluorophenyl)-3-methyl-5H-[1,3]thiazolo[3,2-a]pyrimidin-5-one]
IC50 (B cells; B-cell): < 50 nM
IC50 ([1]; Homo sapiens, Pfeiffer): < 50 nM

Compound: Cc1csc2nc([C@H](C)Nc3ncnc4[nH]cnc34)c(-c3cccc(F)c3)c(=O)n12 [Example 15, (S)-7-(1-(9H-purin-6-ylamino)ethyl)-6-(3-fluorophenyl)-3-methyl-5H-thiazolo[3,2-a]pyrimidin-5-one]
IC50 (B cells; B-cell): < 50 nM

Compound: Cc1cccc2nc(C(C)Nc3ncnc4[nH]cnc34)c(-c3cccc(F)c3)c(=O)n12 (single isomer, unassigned) [Example 71, 3-(3-Fluorophenyl)-6-methyl-2-[1-(9H-purin-6-ylamino)ethyl]-4H-pyrido[1,2-a]pyrimidin-4-one trifluoroacetic acid salt]
IC50 (B cells; B-cell): < 50 nM

Compound: Cc1csc2nc(C(C)Nc3nc(N)nc4[nH]cnc34)c(-c3ccccc3)c(=O)n12 (centres unmarked) [Example 9, 7-{1-[(2-amino-9H-purin-6-yl)amino]ethyl}-3-methyl-6-phenyl-5H-[1,3]thiazolo[3,2-a]pyrimidin-5-one]
IC50 (B cells; B-cell): < 50 nM
IC50 ([1]; Homo sapiens, Pfeiffer): < 50 nM

Compound: Cc1csc2nc(C(C)Nc3ncnc4[nH]cnc34)c(-c3cccc(F)c3)c(=O)n12 (centres unmarked) [Example 30, 6-(3-fluorophenyl)-3-methyl-7-[1-(9H-purin-6-ylamino)ethyl]-5H-[1,3]thiazolo[3,2-a]pyrimidin-5-one]
IC50 (B cells): < 50 nM
IC50 [1]: < 50 nM

Compound: Cc1csc2nc(C(C)Nc3nc(N)nc4[nH]cnc34)c(-c3cc(F)cc(F)c3)c(=O)n12 (centres unmarked) [Example 13, 7-{1-[(2-amino-9H-purin-6-yl)amino]ethyl}-6-(3,5-difluorophenyl)-3-methyl-5H-[1,3]thiazolo[3,2-a]pyrimidin-5-one]
IC50 (B cells; B-cell): < 50 nM

Compound: Cc1cccc2nc(C(C)Nc3ncnc4[nH]cnc34)c(-c3cc(F)ccc3F)c(=O)n12 (centres unmarked) [Example 67, 3-(2,5-Difluorophenyl)-6-methyl-2-[1-(9H-purin-6-ylamino)ethyl]-4H-pyrido[1,2-a]pyrimidin-4-one trifluoroacetic acid salt]
IC50 ([1]; Homo sapiens, Pfeiffer): 50 to 100 nM

Compound: CC(Nc1ncnc2[nH]cnc12)c1nc2scc(C(F)(F)F)n2c(=O)c1-c1cccc(F)c1 (centres unmarked) [Example 48, 6-(3-Fluorophenyl)-7-[1-(9H-purin-6-ylamino)ethyl]-3-(trifluoromethyl)-5H-[1,3]thiazolo[3,2-a]pyrimidin-5-one]
IC50 ([1]; Homo sapiens, Pfeiffer): 50 to 100 nM

Compound: Cc1csc2nc(C(C)Nc3ncnc4[nH]cnc34)c(-c3cccc(F)c3F)c(=O)n12 (centres unmarked) [Example 41, 6-(2,3-difluorophenyl)-3-methyl-7-[1-(9H-purin-6-ylamino)ethyl]-5H-[1,3]thiazolo[3,2-a]pyrimidin-5-one trifluoroacetic acid salt]
IC50 ([1]; Homo sapiens, Pfeiffer): 50 to 100 nM

Compound: Cc1cccc2nc(C(C)Nc3nc(N)nc4[nH]cnc34)c(-c3ccccc3F)c(=O)n12 (centres unmarked) [Example 60, 2-{1-[(2-Amino-9H-purin-6-yl)amino]ethyl}-3-(2-fluorophenyl)-6-methyl-4H-pyrido[1,2-a]pyrimidin-4-one trifluoroacetic acid salt]
IC50 ([1]; Homo sapiens, Pfeiffer): 50 to 100 nM

Compound: Cc1csc2nc(C(C)Nc3nc(N)nc4[nH]cnc34)c(-c3cccc(F)c3F)c(=O)n12 (centres unmarked) [Example 34, 7-{1-[(2-amino-9H-purin-6-yl)amino]ethyl}-6-(2,3-difluorophenyl)-3-methyl-5H-[1,3]thiazolo[3,2-a]pyrimidin-5-one trifluoroacetic acid salt]
IC50 ([1]; Homo sapiens, Pfeiffer): < 50 nM

Compound: Cc1csc2nc(C(C)Nc3nc(N)nc4[nH]cnc34)c(-c3cc(F)cc(Cl)c3)c(=O)n12 (centres unmarked) [Example 35, 7-{1-[(2-amino-9H-purin-6-yl)amino]ethyl}-6-(3-chloro-5-fluorophenyl)-3-methyl-5H-[1,3]thiazolo[3,2-a]pyrimidin-5-one trifluoroacetic acid salt]
IC50 ([1]; Homo sapiens, Pfeiffer): < 50 nM

Compound: Cc1cccc2nc(C(C)Nc3nc(N)nc4[nH]cnc34)c(-c3ccc(C#N)cc3)c(=O)n12 (centres unmarked) [Example 62, 4-(2-{1-[(2-Amino-9H-purin-6-yl)amino]ethyl}-6-methyl-4-oxo-4H-pyrido[1,2-a]pyrimidin-3-yl)benzonitrile trifluoroacetic acid salt]
IC50 ([1]; Homo sapiens, Pfeiffer): 500 to 1000 nM

Compound: Cc1csc2nc(C(C)Nc3ncnc4[nH]cnc34)c(-c3cc(F)ccc3F)c(=O)n12 (centres unmarked) [Example 45, 6-(2,5-difluorophenyl)-3-methyl-7-[1-(9H-purin-6-ylamino)ethyl]-5H-[1,3]thiazolo[3,2-a]pyrimidin-5-one trifluoroacetic acid salt]
IC50 ([1]; Homo sapiens, Pfeiffer): 50 to 100 nM

Compound: Cc1cccc2nc(C(C)Nc3nc(N)nc4[nH]cnc34)c(-c3ccccc3Cl)c(=O)n12 (centres unmarked) [Example 58, 2-{1-[(2-Amino-9H-purin-6-yl)amino]ethyl}-3-(2-chlorophenyl)-6-methyl-4H-pyrido[1,2-a]pyrimidin-4-one trifluoroacetic acid salt]
IC50 ([1]; Homo sapiens, Pfeiffer): < 50 nM

Compound: Cc1cccc2nc(C(C)Nc3ncnc4[nH]cnc34)c(-c3cc(F)cc(F)c3)c(=O)n12 (centres unmarked) [Example 69, 3-(3,5-Difluorophenyl)-6-methyl-2-[1-(9H-purin-6-ylamino)ethyl]-4H-pyrido[1,2-a]pyrimidin-4-one trifluoroacetic acid salt]
IC50 ([1]; Homo sapiens, Pfeiffer): 50 to 100 nM

Compound: Cc1csc2nc(C(C)Nc3ncnc4[nH]cnc34)c(-c3cncc(F)c3)c(=O)n12 (centres unmarked) [Example 42, 6-(5-fluoropyridin-3-yl)-3-methyl-7-[1-(9H-purin-6-ylamino)ethyl]-5H-[1,3]thiazolo[3,2-a]pyrimidin-5-one trifluoroacetic acid salt]
IC50 ([1]; Homo sapiens, Pfeiffer): 100 to 500 nM

Compound: Cc1cccc2nc(C(C)Nc3nc(N)nc4[nH]cnc34)c(-c3cccc(C#N)c3)c(=O)n12 (centres unmarked) [Example 84, 3-(2-{1-[(2-Amino-9H-purin-6-yl)amino]ethyl}-6-methyl-4-oxo-4H-pyrido[1,2-a]pyrimidin-3-yl)benzonitrile trifluoroacetic acid salt]
IC50 ([1]; Homo sapiens, Pfeiffer): 100 to 500 nM

Compound: Cc1csc2nc([C@H](C)Nc3ncnc4[nH]ccc34)c(-c3cc(F)cc(F)c3)c(=O)n12 [Example 17, 6-(3,5-difluorophenyl)-3-methyl-7-[1-(7H-pyrrolo[2,3-d]pyrimidin-4-ylamino)ethyl]-5H-[1,3]thiazolo[3,2-a]pyrimidin-5-one]
IC50 ([1]; Homo sapiens, Pfeiffer): 100 to 500 nM

The next lines start with results.

IC50 ([1]; Homo sapiens, Pfeiffer): < 50 nM
Compound: Cc1csc2nc(C(C)Nc3ncnc4[nH]cnc34)c(-c3ccccc3)c(=O)n12 (centres unmarked) [Example 8, 3-methyl-6-phenyl-7-[1-(9H-purin-6-ylamino)ethyl]-5H-[1,3]thiazolo[3,2-a]pyrimidin-5-one]
IC50 (B cells; B-cell): < 50 nM

IC50 ([1]; Homo sapiens, Pfeiffer): 100 to 500 nM
Compound: CCC(Nc1ncnc2[nH]cnc12)c1nc2cccc(C)n2c(=O)c1-c1cccnc1F (centres unmarked) [Example 6, 3-(2-fluoropyridin-3-yl)-6-methyl-2-[1-(9H-purin-6-ylamino)propyl]-4H-pyrido[1,2-a]pyrimidin-4-one]
IC50 (B cells; B-cell): 50 to 100 nM

IC50 ([1]; Homo sapiens, Pfeiffer): 100 to 500 nM
Compound: CCC(Nc1ncnc2[nH]cnc12)c1nc2cccc(C)n2c(=O)c1-c1cccc(F)c1 (centres unmarked) [Example 4, 3-(3-fluorophenyl)-6-methyl-2-[1-(9H-purin-6-ylamino)propyl]-4H-pyrido[1,2-a]pyrimidin-4-one]
IC50 (B cells; B-cell): < 50 nM

IC50 ([1]; Homo sapiens, Pfeiffer): < 50 nM
Compound: CCC(Nc1ncnc2[nH]cnc12)c1nc2cccc(C)n2c(=O)c1-c1ccccc1 (centres unmarked) [Example 2, 6-methyl-3-phenyl-2-[1-(9H-purin-6-ylamino)propyl]-4H-pyrido[1,2-a]pyrimidin-4-one]
IC50 (B cells; B-cell): 100 to 500 nM

IC50 ([1]; Homo sapiens, Pfeiffer): 100 to 500 nM
Compound: Cc1cccc(-c2c(C(C)Nc3ncnc4[nH]cnc34)nc3cccc(C)n3c2=O)c1 (centres unmarked) [Example 51, 6-Methyl-3-(3-methylphenyl)-2-[1-(9H-purin-6-ylamino)ethyl]-4H-pyrido[1,2-a]pyrimidin-4-one trifluoroacetic acid salt]

IC50 ([1]; Homo sapiens, Pfeiffer): 100 to 500 nM
Compound: Cc1ccccc1-c1c(C(C)Nc2ncnc3[nH]cnc23)nc2cccc(C)n2c1=O (centres unmarked) [Example 63, 6-Methyl-3-(2-methylphenyl)-2-[1-(9H-purin-6-ylamino)ethyl]-4H-pyrido[1,2-a]pyrimidin-4-one trifluoroacetic acid salt]

IC50 ([1]; Homo sapiens, Pfeiffer): 50 to 100 nM
Compound: Cc1ccc(-c2c(C(C)Nc3ncnc4[nH]cnc34)nc3cccc(C)n3c2=O)cc1 (centres unmarked) [Example 64, 6-Methyl-3-(4-methylphenyl)-2-[1-(9H-purin-6-ylamino)ethyl]-4H-pyrido[1,2-a]pyrimidin-4-one trifluoroacetic acid salt]

IC50 ([1]; Homo sapiens, Pfeiffer): 50 to 100 nM
Compound: Cc1cccc2nc(C(C)Nc3ncnc4[nH]cnc34)c(-c3ccccc3)c(=O)n12 (centres unmarked) [Example 49, 6-Methyl-3-phenyl-2-[1-(9H-purin-6-ylamino)ethyl]-4H-pyrido[1,2-a]pyrimidin-4-one trifluoroacetic acid salt]

IC50 ([1]; Homo sapiens, Pfeiffer): 100 to 500 nM
Compound: Cc1cccc2nc(C(C)Nc3ncnc4[nH]cnc34)c(-c3ccccc3F)c(=O)n12 (centres unmarked) [Example 59, 3-(2-Fluorophenyl)-6-methyl-2-[1-(9H-purin-6-ylamino)ethyl]-4H-pyrido[1,2-a]pyrimidin-4-one trifluoroacetic acid salt]
